Data published in ChEMBL document CHEMBL3259791, “Discovery of (E)-3-((styrylsulfonyl)methyl)pyridine and (E)-2-((styrylsulfonyl)methyl)pyridine derivatives as anticancer agents: synthesis, structure-activity relationships, and biological activities” (J Med Chem, 2014).

Key:
Type in all cases: functional
A2780 [1] = test: Antiproliferative activity against human A2780 cells assessed as cell growth inhibition after 72 hrs by MTT assay; details: A2780, 72 h
MCF7 = test: Antiproliferative activity against human MCF7 cells assessed as cell growth inhibition after 72 hrs by MTT assay; details: MCF7, 72 h
MDA-MB-231 = test: Antiproliferative activity against ER negative human MDA-MB-231 cells assessed as cell growth inhibition after 72 hrs by MTT assay; details: MDA-MB-231, 72 h
[2] = Antiproliferative activity against human PANC1 cells assessed as cell growth inhibition after 72 hrs by MTT assay; details: PANC-1, 72 h
LNCaP = test: Antiproliferative activity against AR positive human LNCAP cells assessed as cell growth inhibition after 72 hrs by MTT assay
DU-145 = test: Antiproliferative activity against AR negative human DU145 cells assessed as cell growth inhibition after 72 hrs by MTT assay; details: DU-145, 72 h
WI-38 [3] = test: Antiproliferative activity against human WI38 cells assessed as cell growth inhibition after 72 hrs by MTT assay; details: WI-38, 72 h
A2780 [4] = test: Cell cycle arrest in human A2780 cells assessed as accumulation at subG1 phase at 0.06 uM after 24 hrs by flow cytometric analysis (reference value: 0.62%)
A2780 [5] = test: Cell cycle arrest in human A2780 cells assessed as accumulation at S phase at 0.06 uM after 24 hrs by flow cytometric analysis (reference value: 22.72%)
A2780 [6] = test: Cell cycle arrest in human A2780 cells assessed as accumulation at G2/M phase at 0.06 uM after 24 hrs by flow cytometric analysis (reference value: 21.81%)
A2780 [7] = test: Cell cycle arrest in human A2780 cells assessed as accumulation at subG1 phase at […] after 24 hrs by flow cytometric analysis (reference value: 0.62%)
A2780 [8] = test: Cell cycle arrest in human A2780 cells assessed as accumulation at G1 phase at […] after 24 hrs by flow cytometric analysis (reference value: 54.89%)
A2780 [9] = test: Cell cycle arrest in human A2780 cells assessed as accumulation at S phase at […] after 24 hrs by flow cytometric analysis (reference value: 22.72%)
A2780 [10] = test: Cell cycle arrest in human A2780 cells assessed as accumulation at subG1 phase at 1 uM after 24 hrs by flow cytometric analysis (reference value: 0.62%)
A2780 [11] = test: Cell cycle arrest in human A2780 cells assessed as accumulation at G1 phase at 1 uM after 24 hrs by flow cytometric analysis (reference value: 54.89%)
A2780 [12] = test: Cell cycle arrest in human A2780 cells assessed as accumulation at S phase at 1 uM after 24 hrs by flow cytometric analysis (reference value: 22.72%)
A2780 [13] = test: Cell cycle arrest in human A2780 cells assessed as accumulation at G2/M phase at 1 uM after 24 hrs by flow cytometric analysis (reference value: 21.81%)
WI-38 [14] = test: Cell cycle arrest in human WI38 cells assessed as accumulation at G2/M phase at 0.06 uM after 24 hrs by flow cytometric analysis (reference value: 17.36%)
WI-38 [15] = test: Cell cycle arrest in human WI38 cells assessed as accumulation at subG1 phase at […] after 24 hrs by flow cytometric analysis (reference value: 10.53%)
WI-38 [16] = test: Cell cycle arrest in human WI38 cells assessed as accumulation at G1 phase at […] after 24 hrs by flow cytometric analysis (reference value: 55.89%)
WI-38 [17] = test: Cell cycle arrest in human WI38 cells assessed as accumulation at subG1 phase at 1 uM after 24 hrs by flow cytometric analysis (reference value: 10.53%)
WI-38 [18] = test: Cell cycle arrest in human WI38 cells assessed as accumulation at S phase at 1 uM after 24 hrs by flow cytometric analysis (reference value: 16.25%)
WI-38 [19] = test: Cell cycle arrest in human WI38 cells assessed as accumulation at G2/M phase at 1 uM after 24 hrs by flow cytometric analysis (reference value: 17.36%)
A2780 [20] = test: Induction of apoptosis in human A2780 cells assessed as necrotic cells at 0.06 uM after 48 hrs by annexin V/PI double staining (reference value: 0.53%)
A2780 [21] = test: Induction of apoptosis in human A2780 cells assessed as necrotic cells at […] after 48 hrs by annexin V/PI double staining (reference value: 0.53%)
A2780 [22] = test: Induction of apoptosis in human A2780 cells assessed as late-stage apoptotic cells at […] after 48 hrs by annexin V/PI double staining (reference value: 10.20%)
A2780 [23] = test: Induction of apoptosis in human A2780 cells assessed as early-stage apoptotic cells at […] after 48 hrs by annexin V/PI double staining (reference value: 7.13%)
A2780 [24] = test: Induction of apoptosis in human A2780 cells assessed as viable cells at […] after 48 hrs by annexin V/PI double staining (reference value: 82.12%); details: A2780, 48 h, read-out: Activity
A2780 [25] = test: Induction of apoptosis in human A2780 cells assessed as necrotic cells at 1 uM after 48 hrs by annexin V/PI double staining (reference value: 0.53%)
A2780 [26] = test: Induction of apoptosis in human A2780 cells assessed as late-stage apoptotic cells at 1 uM after 48 hrs by annexin V/PI double staining (reference value: 10.20%)
WI-38 [27] = test: Induction of apoptosis in human WI38 cells assessed as necrotic cells at 0.06 uM after 48 hrs by annexin V/PI double staining (reference value: 0.99%)
WI-38 [28] = test: Induction of apoptosis in human WI38 cells assessed as early-stage apoptotic cells at 0.06 uM after 48 hrs by annexin V/PI double staining (reference value: 2.16%)
WI-38 [29] = test: Induction of apoptosis in human WI38 cells assessed as necrotic cells at […] after 48 hrs by annexin V/PI double staining (reference value: 0.99%)
WI-38 [30] = test: Induction of apoptosis in human WI38 cells assessed as late-stage apoptotic cells at […] after 48 hrs by annexin V/PI double staining (reference value: 16.26%)
WI-38 [31] = test: Induction of apoptosis in human WI38 cells assessed as viable cells at […] after 48 hrs by annexin V/PI double staining (reference value: 80.59%); details: WI-38, 48 h, read-out: Activity
WI-38 [32] = test: Induction of apoptosis in human WI38 cells assessed as necrotic cells at 1 uM after 48 hrs by annexin V/PI double staining (reference value: 0.99%)
WI-38 [33] = test: Induction of apoptosis in human WI38 cells assessed as late-stage apoptotic cells at 1 uM after 48 hrs by annexin V/PI double staining (reference value: 16.26%)
WI-38 [34] = test: Induction of apoptosis in human WI38 cells assessed as early-stage apoptotic cells at 1 uM after 48 hrs by annexin V/PI double staining (reference value: 2.16%)
WI-38 [35] = test: Induction of apoptosis in human WI38 cells assessed as viable cells at 1 uM after 48 hrs by annexin V/PI double staining (reference value: 80.59%); details: WI-38, 48 h, read-out: Activity

`COc1cc(OC)c(/C=C/S(=O)(=O)Cc2ccc(OC)c(N)n2)c(OC)c1` showed a GI50 (A2780 [1]) of 7 nM, a GI50 (MCF7) of 6 nM and a GI50 (MDA-MB-231) of 7 nM. For the same compound, the GI50 [2] was < 1 nM, the GI50 (LNCaP) was 3 nM and the GI50 (DU-145) was 6 nM. The GI50 (WI-38 [3]) was > 10000 nM, the Activity (A2780 [4]) was 10.06% and the Activity (A2780 [5]) was 17.39%. The Activity (A2780 [6]) was 59.72%, the Activity (A2780 [7]) was 12.42% and the Activity (A2780 [8]) was 14.1%. For the same compound, the Activity (A2780 [9]) was 22.54%, the Activity (A2780 [10]) was 2.71% and the Activity (A2780 [11]) was 13.02%. For the same compound, the Activity (A2780 [12]) was 24.49%, the Activity (A2780 [13]) was 59.78% and the Activity (WI-38 [14]) was 22.85%. It also gave an Activity (WI-38 [15]) of 12.08%, an Activity (WI-38 [16]) of 53.55% and an Activity (WI-38 [17]) of 8.09%. It also gave an Activity (WI-38 [18]) of 6.87%, an Activity (WI-38 [19]) of 24.94% and an Activity (A2780 [20]) of 2.88%. For the same compound, the Activity (A2780 [21]) was 1.97%, the Activity (A2780 [22]) was 25.61% and the Activity (A2780 [23]) was 46.99%. For the same compound, the viability at […] (A2780 [24]) was 25.3%, the Activity (A2780 [25]) was 1.11% and the Activity (A2780 [26]) was 21.09%. For the same compound, the Activity (WI-38 [27]) was 3.39%, the Activity (WI-38 [28]) was 1.37% and the Activity (WI-38 [29]) was 5.41%. The Activity (WI-38 [30]) was 8.7%, the viability at […] (WI-38 [31]) was 84.4% and the Activity (WI-38 [32]) was 1.83%. It also gave an Activity (WI-38 [33]) of 15.52%, an Activity (WI-38 [34]) of 2.86% and a viability at 1 µM (WI-38 [35]) of 79.8%.
